From patent publication US8563557B2, “Pyrimidine derivatives and their pharmaceutical use” (University Court of the University of Dundee, priority 2008, dated 2013)
Entries after “also recorded” stand apart in the source; their conditions may differ.

What was measured:
[1] = biological target: T1, SIRT2 (Homo sapiens, UniProt Q8IXJ6); assay: In vitro inhibition of SIRT2 by cambinol analogs; settings: for inhibition at 60 µM: read-out: Inhibition at 60 μM ± SE (%) SIRT2
T1 sequence (Q8IXJ6 1-389): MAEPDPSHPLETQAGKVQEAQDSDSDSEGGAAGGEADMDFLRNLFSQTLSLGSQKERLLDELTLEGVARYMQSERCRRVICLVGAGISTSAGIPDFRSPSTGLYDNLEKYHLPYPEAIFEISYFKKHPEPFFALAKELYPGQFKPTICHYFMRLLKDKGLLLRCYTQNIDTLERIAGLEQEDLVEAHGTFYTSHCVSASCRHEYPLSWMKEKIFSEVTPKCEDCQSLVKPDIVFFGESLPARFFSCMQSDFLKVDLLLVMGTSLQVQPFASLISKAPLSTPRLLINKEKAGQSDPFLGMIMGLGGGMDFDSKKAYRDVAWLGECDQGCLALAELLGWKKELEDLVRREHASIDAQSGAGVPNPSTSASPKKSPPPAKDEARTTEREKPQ

[2] = tested on: acetylated α-tubulin in H1299 cells; assay: Acetylated tubulin levels in H1299 cells treated with compound and Trichostatin A (FIG. 2); type: cell-based; settings: for acetylation of tubulin: H1299 cells, with Trichostatin A
From the text: Total tubulin was used as a loading control.
(§1) Further evidence to support the selective targeting of SIRT1 and SIRT2 by these analogs came from studies in cells.

[3] = tested on: p53 and acetylated p53 in MCF-7 breast adenocarcinoma cells; assay: Expression of p53 and acetylated p53 in MCF-7 cells treated with compound, with etoposide (FIG. 3); type: cell-based
Protocol: Additionally, cells were treated with the same compounds in the presence of the genotoxic agent etoposide.
as §1

[4] = biological target: T2, SIRT1 (Homo sapiens, UniProt Q96EB6); assay: In vitro inhibition of SIRT1 by cambinol analogs; settings: for inhibition at 60 µM: read-out: Inhibition at 60 μM ± SE (%) SIRT1
T2 sequence (Q96EB6 1-747): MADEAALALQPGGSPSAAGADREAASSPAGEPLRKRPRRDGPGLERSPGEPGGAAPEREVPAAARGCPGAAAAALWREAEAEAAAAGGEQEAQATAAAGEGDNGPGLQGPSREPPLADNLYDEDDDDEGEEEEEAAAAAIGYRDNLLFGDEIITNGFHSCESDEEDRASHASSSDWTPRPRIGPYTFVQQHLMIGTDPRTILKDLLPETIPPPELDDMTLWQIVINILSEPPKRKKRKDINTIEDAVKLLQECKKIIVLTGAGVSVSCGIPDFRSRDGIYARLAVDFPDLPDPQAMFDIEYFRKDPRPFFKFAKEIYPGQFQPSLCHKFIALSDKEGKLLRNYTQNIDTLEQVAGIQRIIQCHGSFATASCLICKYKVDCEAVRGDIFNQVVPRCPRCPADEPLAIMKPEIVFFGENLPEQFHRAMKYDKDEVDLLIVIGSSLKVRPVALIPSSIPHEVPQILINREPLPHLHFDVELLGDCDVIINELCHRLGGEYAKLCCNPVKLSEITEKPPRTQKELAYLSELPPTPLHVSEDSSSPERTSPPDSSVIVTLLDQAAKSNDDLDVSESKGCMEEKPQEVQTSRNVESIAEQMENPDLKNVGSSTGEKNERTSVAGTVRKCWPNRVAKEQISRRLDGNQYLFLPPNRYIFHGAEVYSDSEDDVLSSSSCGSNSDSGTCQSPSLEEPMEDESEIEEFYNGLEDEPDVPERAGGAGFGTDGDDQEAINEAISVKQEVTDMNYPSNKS

[5] = tested on: p53 and acetylated p53 in NCl H460 cancer cells; settings: etoposide (10 μM); cited from earlier work
[6] = in the presence of etoposide (10 μM)

activity against SIRT2 in words ([1]; compared with cambinol (1)) | inhibition at 60 µM [1] [%] | melting point [°C] | improvement in activity against SIRT1 compared with cambinol (1) ([4]; from IC50 values) [fold] | IC50 ([4]; read-out: IC50 SIRT1, repeated at least two times) [µM] | inhibition at 60 µM [4] [%] | selectivity for SIRT2 over SIRT1 in words ([1]; in vitro) | IC50 ([1]; read-out: IC50 SIRT2, repeated at least two times) [µM] | cell permeability in words ([2]; concluded from acetylated tubulin increase in cells) | SMILES | acetylation of tubulin [2] | levels of p53 [3, 6] | levels of p53 acetylated at lysine 382 ([3]; in the presence of etoposide, compared to cambinol (1)) | selectivity for SIRT1 over SIRT2 in words ([4]; in vitro) | levels of p53 and acetylated p53 [5] | concentration at which maximal p53 levels were observed [3, 6] [µM]
relative lack of activity | 9.4 ± 1 | 282 to 287 | 4 | 12.7 ± 2 | 82.3 ± 1 |  |  |  | O=c1[nH]c(=S)[nH]c(-c2ccc(Br)cc2)c1Cc1c(O)ccc2ccccc12 [Compound 6b, 6-(4-Bromo-phenyl)-5-(2-hydroxy-naphthalen-1-ylmethyl)-2-thioxo-2,3-dihydro-1H-pyrimidin-4-one] | did not lead to an increase in acetylation of tubulin | increased p53 levels | clear increase in potency compared to cambinol (1) | relatively selective inhibition of SIRT1; also recorded: selective SirT1 inhibitor |  | 
 |  |  |  |  |  |  |  |  | O=c1[nH]c(=S)[nH]c(-c2ccccc2)c1Cc1c(O)ccc2ccccc12 [Compound 1, 5-(2″-Hydroxy-naphthalen-1-ylmethyl)-6-phenyl-2-thioxo-2,3-dihydro-1H-pyrimidin-4-one, reference compound] |  | increased |  |  | higher levels of p53 and acetylated p53 | 50
 | 94.7 ± 1 | 227 to 229 |  |  | 25 ± 2 | SIRT2 selective inhibitor | 4.8 ± 2 | cell-permeable | CCCn1c(-c2ccccc2)c(Cc2c(O)ccc3ccccc23)c(=O)[nH]c1=S [Compound 6h, 5-(2″-Hydroxy-naphthalen-1-ylmethyl)-6-phenyl-1-propyl-2-thioxo-2,3-dihydro-1H-pyrimidin-4-one] | significant increase in the levels of acetylated tubulin |  |  |  |  | 
